# Assays:
# Melanoma cell line = settings: 5 days, media containing 10% FBS
# Protocol: Cell proliferation assays testing the effects of paclitaxel were performed using three tumor cell lines. Lewis Lung Carcinoma (LLC), Melanoma and Calu6 (human lung cancer) cell lines were plated at 3,000 cells/well and when established, cultured in media with/without paclitaxel. Some cultures were maintained with optimal growth factors (serum) whereas others were serum starved (non-growing) cultures. At the end of 5 days, tumor cell proliferation was assessed via MTT analysis.
# To determine the kinetics of the anti-tumor response elicited by paclitaxel-loaded microparticles and to assess for a potential “burst effect” of drug release, a cell proliferation assay comparing paclitaxel-loaded microparticles and DMSO (control) microparticles using the melanoma cell line was run for five consecutive days with a plate undergoing MTT analysis each day for days 2-5. Paclitaxel loaded microparticles and DMSO microparticles were added to serum rich media and individually assessed on tumor cells of the same plate.
# [1] = test system: Lewis Lung Carcinoma (LLC) cell line; assay: Cell proliferation assay (MTT, 5 days) with paclitaxel; type: cell-based, murine; settings: media containing 10% FBS
# Protocol: (§1) Lewis Lung Carcinoma (LLC), Melanoma and Calu6 (human lung cancer) cell lines were plated at 3,000 cells/well and when established, cultured in media with/without paclitaxel.
# [2] = test system: Calu6 (human lung cancer) cell line; assay: as above; type: cell-based; settings: media containing 10% FBS
# Protocol: as §1
# Tumor cells = settings: estimated
# Protocol: Cell proliferation assays were utilized to study the effects of paclitaxel-loaded microparticles on tumor growth. Tumor cells were plated at 3000 cells/well and positive (serum-rich) and negative (serum-poor) cultures were used to signify 0% and 100% growth inhibition respectively.
compound,measurement,setting,value
CC(=O)O[C@H]1C(=O)[C@@]2(C)[C@H]([C@H](OC(=O)c3ccccc3)[C@]3(O)C[C@H](OC(=O)[C@H](O)[C@@H](NC(=O)c4ccccc4)c4ccccc4)C(C)=C1C3(C)C)[C@]1(OC(C)=O)CO[C@@H]1C[C@@H]2O [paclitaxel],paclitaxel concentration that reliably inhibits growth,Melanoma cell line,1 to 10 ng/mL
same,paclitaxel concentration that reliably inhibits growth,[1],1 to 10 ng/mL
same,paclitaxel concentration that reliably inhibits growth,[2],1 to 10 ng/mL
same,range of tumoricidal effects of paclitaxel,Tumor cells,5 to 10 ng
